Activity calls are given as the source filed them.

Assay [1] addresses T1, Polyadenylate-binding protein 1 (Homo sapiens, UniProt P11940). The assay can be described thus: MLLE domain peptide-binding blockers, IC50 – biochemical, fluorescence polarization, FITC-PAM2 peptide, dose response (AID 602259). The settings on record: read-out: IC50_Mean. Format: functional. (Polarisation of emitted light reports the rotation of a fluorescent probe.)
Assay [2] addresses T2, Replicative DNA helicase DnaB (Mycobacterium tuberculosis, UniProt P9WMR3).
T2 sequence (P9WMR3 whole entry): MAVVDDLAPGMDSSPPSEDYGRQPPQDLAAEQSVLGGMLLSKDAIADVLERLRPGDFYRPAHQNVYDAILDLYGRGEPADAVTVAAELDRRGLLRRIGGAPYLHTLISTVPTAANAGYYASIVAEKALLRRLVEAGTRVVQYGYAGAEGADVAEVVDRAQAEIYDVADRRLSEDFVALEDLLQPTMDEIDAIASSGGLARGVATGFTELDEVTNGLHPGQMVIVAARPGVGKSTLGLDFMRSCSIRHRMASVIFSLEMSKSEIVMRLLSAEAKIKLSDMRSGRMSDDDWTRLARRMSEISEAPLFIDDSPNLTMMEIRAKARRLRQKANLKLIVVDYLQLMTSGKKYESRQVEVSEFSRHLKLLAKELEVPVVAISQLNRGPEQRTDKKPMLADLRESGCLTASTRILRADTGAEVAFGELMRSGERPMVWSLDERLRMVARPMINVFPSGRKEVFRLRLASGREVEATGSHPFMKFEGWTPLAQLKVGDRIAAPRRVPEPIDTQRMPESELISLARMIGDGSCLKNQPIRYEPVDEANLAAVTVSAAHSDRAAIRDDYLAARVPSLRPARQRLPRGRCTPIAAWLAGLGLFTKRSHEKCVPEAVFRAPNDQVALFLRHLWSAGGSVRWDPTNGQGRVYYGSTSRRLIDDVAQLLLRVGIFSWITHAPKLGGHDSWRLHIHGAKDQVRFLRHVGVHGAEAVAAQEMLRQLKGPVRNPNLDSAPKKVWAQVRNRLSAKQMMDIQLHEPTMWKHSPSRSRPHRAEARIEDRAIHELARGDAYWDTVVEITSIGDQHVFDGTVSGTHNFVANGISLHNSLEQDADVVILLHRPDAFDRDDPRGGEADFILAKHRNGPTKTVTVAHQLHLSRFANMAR
Nature of the assay: DnaB intein splicing inhibitors, dose response, biochemical, cell-free fluorescence (AID 449749). The format is functional.

In assay [3] the target is T1, Polyadenylate-binding protein 1. Nature of the assay: MLLE binding blockers, Cy5 peptide tracer – biochemical, fluorescence polarization, Cy5-PAM2 peptide, secondary, miRNA deadenylation inhibitor project, dose response (AID 602260). Conditions: read-out: IC50_Mean. The format is functional.
The next assay concerns the target T3, Protein RecA (Mycobacterium tuberculosis, UniProt P9WHJ3).
T3 sequence (P9WHJ3 whole entry): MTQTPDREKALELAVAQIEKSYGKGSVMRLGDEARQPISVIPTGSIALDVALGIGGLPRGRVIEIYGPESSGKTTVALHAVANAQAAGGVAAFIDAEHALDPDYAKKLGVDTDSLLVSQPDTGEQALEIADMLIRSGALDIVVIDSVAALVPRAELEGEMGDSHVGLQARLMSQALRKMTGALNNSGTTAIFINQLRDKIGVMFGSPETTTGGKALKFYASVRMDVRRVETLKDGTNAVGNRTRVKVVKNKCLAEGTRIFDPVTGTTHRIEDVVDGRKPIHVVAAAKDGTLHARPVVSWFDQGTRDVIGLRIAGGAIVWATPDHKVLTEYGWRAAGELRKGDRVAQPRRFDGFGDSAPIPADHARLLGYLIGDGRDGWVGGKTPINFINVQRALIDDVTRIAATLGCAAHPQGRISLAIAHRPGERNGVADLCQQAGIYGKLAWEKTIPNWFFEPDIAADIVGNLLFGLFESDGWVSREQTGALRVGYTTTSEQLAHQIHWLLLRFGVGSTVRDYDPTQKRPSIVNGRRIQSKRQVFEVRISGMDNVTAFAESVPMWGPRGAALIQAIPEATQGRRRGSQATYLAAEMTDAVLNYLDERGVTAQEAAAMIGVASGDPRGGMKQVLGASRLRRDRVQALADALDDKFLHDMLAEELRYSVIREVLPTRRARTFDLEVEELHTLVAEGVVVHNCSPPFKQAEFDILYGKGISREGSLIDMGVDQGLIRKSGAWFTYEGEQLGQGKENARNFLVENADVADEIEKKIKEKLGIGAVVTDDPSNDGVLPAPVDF
Nature of the assay: Fluorescence Cell-Free Homogeneous Dose Retest to Identify Inhibitors of RecA-Intein Splicing Activity. [Related pubchem assays (depositor defined):AID2097, AID2223, AID489010, AID492950]. The format is functional.

The target of the next assay is Nonstructural protein 1 (Influenza A virus, UniProt Q194T2). Format: functional, Influenza A virus (A/California/07/2009(H1N1)).
Sequence of Nonstructural protein 1 (Q194T2 whole entry): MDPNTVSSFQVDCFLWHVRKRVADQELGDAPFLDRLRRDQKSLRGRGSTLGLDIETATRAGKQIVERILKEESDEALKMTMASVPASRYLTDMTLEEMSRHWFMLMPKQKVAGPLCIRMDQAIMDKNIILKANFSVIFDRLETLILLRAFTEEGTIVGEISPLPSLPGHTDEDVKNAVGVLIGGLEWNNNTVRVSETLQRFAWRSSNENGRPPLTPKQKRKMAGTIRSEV
The target in assay [4] is T4, Apoptotic protease-activating factor 1 (Homo sapiens, UniProt O14727).
T4 sequence (O14727 whole entry): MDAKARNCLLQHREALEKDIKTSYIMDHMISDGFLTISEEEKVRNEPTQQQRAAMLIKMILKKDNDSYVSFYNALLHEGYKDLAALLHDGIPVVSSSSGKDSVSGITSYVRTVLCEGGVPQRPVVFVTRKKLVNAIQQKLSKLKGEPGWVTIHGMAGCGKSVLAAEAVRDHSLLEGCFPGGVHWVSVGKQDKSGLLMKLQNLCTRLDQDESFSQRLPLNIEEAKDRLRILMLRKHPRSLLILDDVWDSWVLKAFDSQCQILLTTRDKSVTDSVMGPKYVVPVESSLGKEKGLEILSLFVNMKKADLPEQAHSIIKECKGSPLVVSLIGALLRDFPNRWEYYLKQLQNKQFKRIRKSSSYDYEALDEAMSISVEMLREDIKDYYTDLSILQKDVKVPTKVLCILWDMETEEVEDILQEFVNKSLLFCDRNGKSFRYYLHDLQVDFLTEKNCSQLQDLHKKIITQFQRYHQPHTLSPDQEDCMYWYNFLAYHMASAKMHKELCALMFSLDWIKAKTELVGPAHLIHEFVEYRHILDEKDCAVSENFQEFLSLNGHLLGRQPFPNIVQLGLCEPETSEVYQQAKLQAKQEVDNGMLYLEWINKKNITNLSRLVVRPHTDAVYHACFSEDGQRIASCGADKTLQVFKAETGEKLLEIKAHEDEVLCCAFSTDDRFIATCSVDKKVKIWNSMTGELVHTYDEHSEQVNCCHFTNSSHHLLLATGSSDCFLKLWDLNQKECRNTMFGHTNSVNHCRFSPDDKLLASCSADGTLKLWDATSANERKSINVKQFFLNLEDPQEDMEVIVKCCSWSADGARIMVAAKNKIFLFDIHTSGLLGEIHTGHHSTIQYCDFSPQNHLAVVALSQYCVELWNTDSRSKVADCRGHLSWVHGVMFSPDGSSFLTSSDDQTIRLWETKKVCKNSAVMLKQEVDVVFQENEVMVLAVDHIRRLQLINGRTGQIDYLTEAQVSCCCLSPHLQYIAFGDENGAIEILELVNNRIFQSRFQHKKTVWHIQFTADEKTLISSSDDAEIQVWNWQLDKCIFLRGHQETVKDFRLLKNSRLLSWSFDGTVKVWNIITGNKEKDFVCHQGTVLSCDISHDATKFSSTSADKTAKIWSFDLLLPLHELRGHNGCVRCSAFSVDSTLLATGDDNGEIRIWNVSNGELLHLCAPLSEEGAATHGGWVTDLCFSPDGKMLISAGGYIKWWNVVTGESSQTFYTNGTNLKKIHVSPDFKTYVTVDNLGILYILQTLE
The format is functional.

In assay [5] the target is Induced myeloid leukemia cell differentiation protein Mcl-1 (Homo sapiens, UniProt Q07820). The format is functional.
Sequence of Induced myeloid leukemia cell differentiation protein Mcl-1 (Q07820 whole entry): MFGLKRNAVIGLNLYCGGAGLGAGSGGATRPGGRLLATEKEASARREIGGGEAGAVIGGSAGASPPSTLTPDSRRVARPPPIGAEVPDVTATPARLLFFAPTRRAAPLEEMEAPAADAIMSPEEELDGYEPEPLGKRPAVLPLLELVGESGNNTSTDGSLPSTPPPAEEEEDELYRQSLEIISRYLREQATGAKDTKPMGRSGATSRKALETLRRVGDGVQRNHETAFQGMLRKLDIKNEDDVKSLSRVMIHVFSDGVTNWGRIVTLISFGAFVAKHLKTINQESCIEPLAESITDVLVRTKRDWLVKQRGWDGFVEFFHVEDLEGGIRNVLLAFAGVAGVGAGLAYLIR
Assay [6] addresses Glucose-6-phosphate 1-dehydrogenase (Homo sapiens, UniProt P11413). The assay can be described thus: inhibition of Homo sapiens G6PD, dose series – biochemical, fluorescence, selectivity assay for P. falciparum G6PD inhibitor project, dose response (AID 504792). Format: functional.
Assay [7] deals with T5, Nuclear receptor subfamily 0 group B member 1 (Homo sapiens, UniProt P51843).
T5 sequence (P51843 whole entry): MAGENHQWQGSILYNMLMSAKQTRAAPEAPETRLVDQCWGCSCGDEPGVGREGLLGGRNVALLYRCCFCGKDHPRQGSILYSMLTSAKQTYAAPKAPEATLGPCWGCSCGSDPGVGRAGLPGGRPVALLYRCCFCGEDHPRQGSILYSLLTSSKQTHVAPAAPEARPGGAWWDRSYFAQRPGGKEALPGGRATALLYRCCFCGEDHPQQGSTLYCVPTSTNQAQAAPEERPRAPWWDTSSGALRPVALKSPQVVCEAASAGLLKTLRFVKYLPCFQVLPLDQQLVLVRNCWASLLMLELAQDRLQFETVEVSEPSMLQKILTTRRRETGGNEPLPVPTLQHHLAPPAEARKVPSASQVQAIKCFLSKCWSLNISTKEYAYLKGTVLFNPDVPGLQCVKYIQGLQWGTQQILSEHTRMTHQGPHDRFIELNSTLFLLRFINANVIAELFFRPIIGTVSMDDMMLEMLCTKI
Nature of the assay: Luminescence-based cell-based high throughput dose response assay for inhibitors of the orphan nuclear receptor subfamily 0, group B, member 1 (DAX1; NR0B1). [Related pubchem assays (depositor defined):AID504766, AID504790]. Format: functional.

The subject of another assay is HEK293. The assay can be described thus: cells. Format: functional, cell-based. Conditions: Homo sapiens.
For a further assay, the system named is CHO. Nature of the assay: CHO cell viability loss, potency – luminescence, cytotoxicity control for TLR9-MyD88 binding inhibitor project, dose response (AID 588339).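 Further: CHO cells stably coexpressing TLR9 and MyD88 fusions from primary screen; compound exposure lasted 48 hours before viability readout.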 Format: functional, cell-based, hamster. Conditions: Cricetulus griseus.
Assay [8] deals with T6, Aryl hydrocarbon receptor (Homo sapiens, UniProt P35869).
T6 sequence (P35869 whole entry): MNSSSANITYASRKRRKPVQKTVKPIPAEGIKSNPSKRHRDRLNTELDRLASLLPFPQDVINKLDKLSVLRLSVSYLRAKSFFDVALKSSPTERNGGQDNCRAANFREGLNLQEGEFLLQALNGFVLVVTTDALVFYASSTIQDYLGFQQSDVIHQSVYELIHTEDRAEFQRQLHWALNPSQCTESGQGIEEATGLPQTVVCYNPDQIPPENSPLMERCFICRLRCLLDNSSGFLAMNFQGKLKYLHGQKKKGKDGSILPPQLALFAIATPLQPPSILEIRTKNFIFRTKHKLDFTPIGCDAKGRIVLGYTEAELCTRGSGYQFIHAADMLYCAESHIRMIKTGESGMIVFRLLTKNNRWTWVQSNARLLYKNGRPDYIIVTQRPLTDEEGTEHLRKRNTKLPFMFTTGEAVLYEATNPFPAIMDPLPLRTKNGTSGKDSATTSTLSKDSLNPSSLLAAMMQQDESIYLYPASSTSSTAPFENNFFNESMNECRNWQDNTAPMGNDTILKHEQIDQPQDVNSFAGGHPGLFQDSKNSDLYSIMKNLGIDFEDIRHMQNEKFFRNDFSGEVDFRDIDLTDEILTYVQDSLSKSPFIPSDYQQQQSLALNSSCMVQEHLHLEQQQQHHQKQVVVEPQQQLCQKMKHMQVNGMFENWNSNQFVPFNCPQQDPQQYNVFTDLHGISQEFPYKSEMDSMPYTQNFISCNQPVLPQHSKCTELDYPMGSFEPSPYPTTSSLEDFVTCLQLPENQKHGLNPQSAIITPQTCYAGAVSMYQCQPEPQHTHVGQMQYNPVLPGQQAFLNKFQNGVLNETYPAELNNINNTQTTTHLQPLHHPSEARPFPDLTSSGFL
Conditions: Potency.

In assay [9] the target is Voltage-gated inwardly rectifying potassium channel KCNH2 (Homo sapiens, UniProt Q12809). Conditions: Potency.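 Further: confirmatory quantitative high-throughput screen measuring inhibition of hERG channel activity.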
Sequence of Voltage-gated inwardly rectifying potassium channel KCNH2 (Q12809 whole entry): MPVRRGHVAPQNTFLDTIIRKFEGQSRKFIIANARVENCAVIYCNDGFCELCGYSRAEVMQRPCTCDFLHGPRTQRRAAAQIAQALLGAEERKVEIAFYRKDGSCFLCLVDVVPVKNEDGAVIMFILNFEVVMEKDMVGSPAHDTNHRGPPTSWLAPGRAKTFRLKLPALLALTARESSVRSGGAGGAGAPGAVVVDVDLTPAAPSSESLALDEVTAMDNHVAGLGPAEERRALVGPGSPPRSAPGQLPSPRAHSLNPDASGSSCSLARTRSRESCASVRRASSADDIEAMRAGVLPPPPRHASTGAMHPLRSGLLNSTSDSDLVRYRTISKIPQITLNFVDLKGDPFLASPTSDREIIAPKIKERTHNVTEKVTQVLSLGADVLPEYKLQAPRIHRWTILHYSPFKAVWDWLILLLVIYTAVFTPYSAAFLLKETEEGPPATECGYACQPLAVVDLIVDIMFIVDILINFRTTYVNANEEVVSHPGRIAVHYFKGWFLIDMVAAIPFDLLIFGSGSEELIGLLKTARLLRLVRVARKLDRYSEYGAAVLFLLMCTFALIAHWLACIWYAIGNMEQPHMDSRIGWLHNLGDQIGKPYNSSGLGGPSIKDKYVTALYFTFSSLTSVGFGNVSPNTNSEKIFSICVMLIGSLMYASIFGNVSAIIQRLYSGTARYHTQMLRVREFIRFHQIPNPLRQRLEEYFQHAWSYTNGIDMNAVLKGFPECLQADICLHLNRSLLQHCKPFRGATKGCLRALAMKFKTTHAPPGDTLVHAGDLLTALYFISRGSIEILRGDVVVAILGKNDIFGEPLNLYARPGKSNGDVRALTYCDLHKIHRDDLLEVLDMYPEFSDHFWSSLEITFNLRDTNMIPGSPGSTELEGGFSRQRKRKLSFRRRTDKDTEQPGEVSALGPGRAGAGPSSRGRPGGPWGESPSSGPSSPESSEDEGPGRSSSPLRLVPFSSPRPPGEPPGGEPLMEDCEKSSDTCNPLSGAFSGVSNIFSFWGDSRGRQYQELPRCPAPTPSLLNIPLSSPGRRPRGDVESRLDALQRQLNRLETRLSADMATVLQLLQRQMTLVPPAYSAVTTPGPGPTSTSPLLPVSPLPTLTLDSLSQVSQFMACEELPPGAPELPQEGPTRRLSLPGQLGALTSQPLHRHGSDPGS

T1 sequence (P11940 whole entry, the tested form may be a part): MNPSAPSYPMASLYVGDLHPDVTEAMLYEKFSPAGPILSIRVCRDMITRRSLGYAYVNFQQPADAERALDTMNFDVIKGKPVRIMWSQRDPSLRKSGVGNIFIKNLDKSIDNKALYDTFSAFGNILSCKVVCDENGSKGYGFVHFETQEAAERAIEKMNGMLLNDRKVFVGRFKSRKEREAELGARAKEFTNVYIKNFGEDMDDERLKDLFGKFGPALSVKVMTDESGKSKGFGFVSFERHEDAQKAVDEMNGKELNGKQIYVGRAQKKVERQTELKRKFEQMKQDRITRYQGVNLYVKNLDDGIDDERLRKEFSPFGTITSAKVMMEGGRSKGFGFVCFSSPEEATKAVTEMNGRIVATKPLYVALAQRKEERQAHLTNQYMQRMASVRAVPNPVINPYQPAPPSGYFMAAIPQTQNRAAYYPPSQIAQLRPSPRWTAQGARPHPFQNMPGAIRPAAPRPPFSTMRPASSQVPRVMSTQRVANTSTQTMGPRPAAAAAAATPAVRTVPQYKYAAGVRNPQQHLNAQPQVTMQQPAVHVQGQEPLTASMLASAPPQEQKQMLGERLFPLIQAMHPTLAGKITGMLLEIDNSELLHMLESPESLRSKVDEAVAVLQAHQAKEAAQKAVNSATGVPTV
Sequence of Glucose-6-phosphate 1-dehydrogenase (P11413 whole entry): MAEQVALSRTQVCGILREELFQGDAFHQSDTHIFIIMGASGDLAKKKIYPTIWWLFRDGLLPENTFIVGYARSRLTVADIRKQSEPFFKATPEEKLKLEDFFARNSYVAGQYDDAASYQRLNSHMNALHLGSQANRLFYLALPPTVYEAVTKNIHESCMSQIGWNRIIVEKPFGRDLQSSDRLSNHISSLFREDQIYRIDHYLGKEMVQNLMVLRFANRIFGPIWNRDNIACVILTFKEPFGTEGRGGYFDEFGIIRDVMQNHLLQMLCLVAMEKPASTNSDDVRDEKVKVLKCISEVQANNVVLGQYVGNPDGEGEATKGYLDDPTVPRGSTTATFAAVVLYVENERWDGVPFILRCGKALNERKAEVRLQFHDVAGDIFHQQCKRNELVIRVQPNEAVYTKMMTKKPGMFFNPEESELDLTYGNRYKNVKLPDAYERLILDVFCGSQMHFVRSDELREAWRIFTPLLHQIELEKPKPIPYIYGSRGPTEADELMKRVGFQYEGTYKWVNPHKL

Regarding `Cc1ccc(NC2=C(NC(=O)c3ccccc3)C(=O)c3ccccc3C2=O)cc1Cl`, the IC50 in assay [1] is > 66 µM (inactive); in assay [3] it was > 66 µM (inactive); on Nonstructural protein 1 it was 17.5 µM (active); in assay [4], 17 µM (active); in [5], 3.38 µM (active); in assay [6], > 80 µM (inactive). In addition, the AC50 in assay [2] was 3 µM (active). Besides, the EC50 on Protein RecA is 2.52 µM (active).

With `Cc1cc(Cl)c2oc(C(=O)N(CCO)Cc3ccccc3)c(C)c2c1`, the IC50 (in assay [7]; in the assay with HEK293) was > 67.5 µM (inactive) each time.

Take `CCOc1ccc(N(CC(=O)Nc2ccc(C)c(C)c2)S(C)(=O)=O)cc1`: the IC50 (in assay [7]; in the assay on HEK293) was > 67.5 µM (inactive) each time.

For `NNC(=O)c1oc2nc(-c3ccc(Cl)cc3)cc(-c3ccccc3)c2c1N`, the IC50 in the assay on CHO was > 49.7 µM (inactive).

As to `Nc1ccc(/N=N\c2ccccc2)c(N)c1`, the figures for the AC50 in assay [8] and in assay [9] were 14.1 µM (inconclusive) and 50.1 µM (inconclusive), respectively.

For the molecule `CCOP(=S)(OCC)SCSC(C)(C)C` [TERBUFOS], the concentration at half-maximal activity (AC50) in assay [9] is 39.8 µM (inconclusive).

A word on the AC50: it is the midpoint of the concentration-response curve, whichever way the signal moves. By EC50 is commonly meant the concentration at which the effect is half-maximal.

These data come from ChEMBL document CHEMBL1201862, “PubChem BioAssay data set” (2004).
